Paper PMC7542596 (ACS Omega, 2020)

What was measured:
[1] = test system: H5N1 influenza virus strain A/Egypt/M7217B/2013; assay: microbe, parasite or virus in culture; format: cell-based, influenza A virus (subtype H5N1); details: for inhibition at 125 µM / inhibition at 250 µM: MDCK, read-out: inhibition % (plaque reduction assay)
[2] = test system: Madin–Darby canine kidney (MDCK) cells; details: dog

Row | Structure (SMILES) | viral count (plaque reduction assay) [1] | inhibition at 125 µM [1] | inhibition at 250 µM [1] | MTT assay LD50 [2] | therapeutic index (qualitative, plaque reduction assay) [1] | safety for healthy cells judged from LD50 values (NCI and GERAN protocol) [2]
1 | CSC(NC(=O)c1ccccc1)=C(C#N)C#N [3a, N-(2,2-Dicyano-1-(methylthio)vinyl)benzamide] | 5.0 × 10^6 4.0 × 10^6 PFU/mL | 16.7% | 33.3% | 200 µmol/mL |  | 
2 | CCSC(NC(=O)c1ccccc1)=C(C#N)C#N [3b, N-(2,2-Dicyano-1-(ethylthio)vinyl)benzamide] | 2.2 × 10^6 9.0 × 10^5 PFU/mL | 63.3% | 85% | 480 µmol/mL | higher therapeutic indices | safe for healthy cells
3 | N#CC(C#N)=C(NC(=O)c1ccccc1)SCc1ccccc1 [3c, N-(1-(Benzylthio)-2,2-dicyanovinyl)benzamide] | 2.8 × 10^6 2.1 × 10^6 PFU/mL | 53.3% | 65% | 200 µmol/mL |  | 
4 | N#Cc1nnc2c(C#N)c(NC(=O)c3ccccc3)nn2c1N [6a, N-(4-Amino-3,8-dicyanopyrazolo[5,1-c][1,2,4]triazin-7-yl)benzamide] | 4.0 × 10^6 3.0 × 10^6 PFU/mL | 33.3% | 50% | 200 µmol/mL |  | 
5 | CCOc1c(C#N)nnc2c(C#N)c(NC(=O)c3ccccc3)nn12 [6b, N-(3,8-Dicyano-4-ethoxypyrazolo[5,1-c][1,2,4]triazin-7-yl)benzamide] | 3.0 × 10^6 3.2 × 10^6 PFU/mL | 50% | 46.7% | 100 µmol/mL |  | 
6 | N#Cc1c(NC(=O)c2ccccc2)nn2c3c(cnc12)CCC3 [8a, N-(3-Cyano-7,8-dihydro-6H-cyclopenta[e]pyrazolo[1,5-a]pyrimidin-2-yl)benzamide] | 4.0 × 10^6 2.5 × 10^6 PFU/mL | 33.3% | 58.3% | 170 µmol/mL |  | 
7 | N#Cc1c(NC(=O)c2ccccc2)nn2c3c(cnc12)CCCC3 [8b, N-(3-Cyano-6,7,8,9-tetrahydrocyclohexa[e]pyrazolo[1,5-a]pyrimidin-2-yl)benzamide] |  |  |  | 210 µmol/mL |  | 
8 | COc1ccc(-c2c(C#N)c(N)nc3c(C#N)c(NC(=O)c4ccccc4)nn23)cc1 [10b, N-(5-Amino-3,6-dicyano-7-(4-methoxyphenyl)pyrazolo[1,5-a]pyrimidin-2-yl)benzamide] | 1.0 × 10^6 b PFU/mL |  |  | 140 µmol/mL | higher therapeutic indices | 
9 | N#Cc1c(N)nc2c(C#N)c(NC(=O)c3ccccc3)nn2c1-c1ccc(Cl)cc1 [10c, N-(5-Amino-7-(4-chlorophenyl)-3,6-dicyanopyrazolo[1,5-a]pyrimidin-2-yl)benzamide] | 4.0 × 10^6 2.0 × 10^6 PFU/mL | 33.3% | 66.7% | 120 µmol/mL |  | 
10 | Cc1cc(C)n2nc(NC(=O)c3ccccc3)c(C#N)c2n1 [12a, N-(3-Cyano-5,7-dimethylpyrazolo[1,5-a]pyrimidin-2-yl)benzamide] | 4.6 × 10^6 2.0 × 10^6 PFU/mL | 23.3% | 66.7% | 210 µmol/mL |  | 
11 | Cc1cc(O)n2nc(NC(=O)c3ccccc3)c(C#N)c2n1 [12b, N-(3-Cyano-7-hydroxy-5-methylpyrazolo[1,5-a]pyrimidin-2-yl)benzamide] | 5.0 × 10^6 4.0 × 10^6 PFU/mL | 16.7% | 33.3% | 190 µmol/mL |  | 
12 | CC(=O)OC[C@H]1O[C@@H](SC(NC(=O)c2ccccc2)=C(C#N)C#N)[C@H](OC(C)=O)[C@H](OC(C)=O)[C@H]1OC(C)=O [21a, (2R,3S,4R,5R,6S)-2-(Acetoxymethyl)-6-((1-benzamido-2,2-dicyanovinyl)thio)tetrahydro-2H-pyran-3,4,5-triyl triacetate] | 2.2 × 10^6 2.0 × 10^6 PFU/mL | 63.3% | 66.7% | 90 µmol/mL |  | 
13 | CCOC(=O)/C(C#N)=C(\NC(=O)c1ccccc1)S[C@@H]1O[C@H](COC(C)=O)[C@H](OC(C)=O)[C@@H](OC(C)=O)[C@H]1OC(C)=O [21b, (2R,3S,4R,5R,6S)-2-(Acetoxymethyl)-6-(((E)-1-benzamido-2-cyano-3-ethoxy-3-oxoprop-1-en-1-yl)thio)tetrahydro-2H-pyran-3,4,5-triyl triacetate] | 3.5 × 10^6 2.0 × 10^6 PFU/mL | 41.7% | 66.7% | 210 µmol/mL |  | 
14 | N#Cc1c(NC(=O)c2ccccc2)n[nH]c1N [compound 4, N-(5-Amino-4-cyano-1H-pyrazol-3-yl)benzamide] | 2.0 × 10^6 1.4 × 10^6 PFU/mL | 66.7% | 76.7% | 30 µmol/mL | higher therapeutic indices | 
15 | CCOC(=O)/C(C#N)=C(\NC(=O)c1ccccc1)SC [compound 14, (E)-Ethyl 3-benzamido-2-cyano-3-(methylthio)acrylate] | 5.0 × 10^6 5.0 × 10^6 PFU/mL | 16.7% | 16.7% | 130 µmol/mL |  | 
16 | CCOc1n[nH]c(-c2ccccc2)n1 [compound 19, 3-Ethoxy-5-phenyl-1H-1,2,4-triazole] | 2.2 × 10^6 2.0 × 10^6 PFU/mL | 63.3% | 66.7% | 230 µmol/mL |  | 
17 | CC(=O)N[C@H]1[C@H]([C@H](O)[C@H](O)CO)OC(C(=O)O)=C[C@@H]1N=C(N)N [zanamivir, reference compound] | 5.0 × 10^4 1.1 × 10^4 PFU/mL | 99.2% | 99.8% |  |  | 
